≈ marks a conversion by molar mass, not a printed value. Like-named read-outs stand apart in the source and are kept apart here.
Assays:
[1] = molecular target: T1, human D2R/β-arrestin (Homo sapiens (Human), UniProt P14416); assay: β-Arrestin agonist assay (PathHunter); format: cell-based; settings: CHO-K1 cell line expressing human D2R/β-arrestin
Method in brief: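 Readout follows addition of Buffer:Emerald II:Galactor-Star reagent (19:5:1) to agonist-treated plates, measured as luminescence or fluorescence.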

[2] = molecular target: T1, human D2R/β-arrestin; assay: Gi/cAMP agonist assay (Lance Ultra cAMP, Forskolin); format: cell-based; settings: CHO-K1 cell line expressing human D2R/β-arrestin
Method in brief: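 Read-out was Lance Ultra competitive TR-FRET (Eu-cAMP tracer plus ULight-anti-cAMP) following forskolin-induced cAMP production. Before forskolin stimulation, compounds were pin-transferred onto the seeded cells for 10 min at 37 °C.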

[3] = molecular target: D2 (Homo sapiens (Human), UniProt P14416); assay: D2 radioligand binding assay
[4] = molecular target: T1, human D2R/β-arrestin; settings: read-out: cAMP Antagonist
[5] = molecular target: T1, human D2R/β-arrestin; assay: cell-based; settings: β-arrestin Antagonist, CHO-K1 cell line expressing human D2R/β-arrestin; quinpirole used as agonist
[6] = Solubility in PBS; format: physicochemical; settings: aqueous buffer
[7] = molecular target: T1, human D2R/β-arrestin; assay: cell-based; settings: cAMP Antagonist, CHO-K1 cell line expressing human D2R/β-arrestin; quinpirole used as agonist
[8] = Plasma stability, mouse
[9] = Microsomal stability, mouse
[10] = molecular target: T1, human D2R/β-arrestin; settings: read-out: β-arrestin Antagonist
[11] = test system: plasma protein; assay: Plasma protein binding, mouse; format: in vitro ADME; settings: for fraction unbound: plasma, read-out: Plasma Protein Binding % bound
[12] = test system: plasma protein; assay: Plasma protein binding, human; format: in vitro ADME; settings: plasma, read-out: Plasma Protein Binding % bound
[13] = test system: plasma protein; assay: Plasma protein binding, rat; format: in vitro ADME; settings: plasma, read-out: Plasma Protein Binding % bound
[14] = Plasma stability, human; format: in vitro ADME
[15] = Plasma stability, rat; format: in vitro ADME
[16] = Microsomal stability, human; format: in vitro ADME
[17] = Microsomal stability, rat; format: in vitro ADME
[18] = CHO-K1 cell line expressing human D2R/β-arrestin, quinpirole used as agonist

Sequence of D2 (P14416 whole entry): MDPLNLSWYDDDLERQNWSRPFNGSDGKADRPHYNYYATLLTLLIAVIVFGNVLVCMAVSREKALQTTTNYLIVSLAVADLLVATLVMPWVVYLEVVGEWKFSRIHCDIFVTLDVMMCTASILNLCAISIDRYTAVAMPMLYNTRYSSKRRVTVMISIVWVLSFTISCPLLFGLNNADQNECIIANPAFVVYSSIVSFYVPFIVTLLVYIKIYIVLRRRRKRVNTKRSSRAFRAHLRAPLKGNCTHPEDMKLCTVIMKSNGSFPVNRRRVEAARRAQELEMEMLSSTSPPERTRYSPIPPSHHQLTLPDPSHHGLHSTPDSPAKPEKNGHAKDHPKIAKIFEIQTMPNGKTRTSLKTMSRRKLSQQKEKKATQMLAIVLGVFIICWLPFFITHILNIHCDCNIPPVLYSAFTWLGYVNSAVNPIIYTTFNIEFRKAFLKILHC
T1 sequence (P14416 whole entry): as above

EC50 [1] [µM] | EC50 [2] [nM] | Ki [3] [nM] | IC50 [4, 18] [µM] | IC50 [5] [nM] | solubility [6] [µM] | IC50 [7] [nM] | Microsomal Stability: % remaining after 60 minutes [9] | IC50 [10, 18] [µM] | Structure (SMILES) | Plasma Stability: % remaining after 5 hours [8] | Plasma Protein Binding % bound [11] | IC50 [10] [µM] | IC50 [4] [µM] | fraction unbound [12] | fraction unbound [11] | fraction unbound [13] | Plasma Stability: % remaining after 5 hours [14] [%] | Plasma Stability: % remaining after 5 hours [15] [%] | Microsomal Stability: % remaining after 60 minutes [16] [%] | Microsomal Stability: % remaining after 60 minutes [17] [%]
0.1 to 1 | < 100 | 100 to 1000 | > 30 | 100 to 1000 |  |  |  |  | CC1(C(=O)NC(c2ccc(F)cc2)c2ccccn2)CCN(CCOc2ccccc2)CC1 (single isomer, unassigned) [Compound 69b, N-((4-fluorophenyl)(pyridin-2-yl)methyl)-4-methyl-1-(2-phenoxyethyl)piperidine-4-carboxamide] |  |  |  |  |  |  |  |  |  |  | 
1 to 10 | 100 to 1000 | 100 to 1000 |  | 100 to 1000 | 1.4 (≈ 0.655 µg/mL) | > 30000 | m0% |  | CN(CC1CCN(CCOc2ccccc2F)CC1)C(c1ccc(Cl)cc1)c1ccccn1 (single isomer, unassigned) [Compound 72a, 1-(4-chlorophenyl)-N-((1-(2-(2-fluorophenoxy)ethyl)piperidin-4-yl)methyl)-N-methyl-1-(pyridin-2-yl)methanamine] | m100% |  |  |  |  |  |  |  |  |  | 
> 30 | 100 to 1000 | 100 to 1000 |  |  | 8 (≈ 3.6 µg/mL) | > 30000 | m0% | 1 to 10 | CN(CC1CCN(CCOc2ccccc2)CC1)C(c1ccc(Cl)cc1)c1ccccn1 (single isomer, unassigned) [Compound 79b, 1-(4-chlorophenyl)-N-methyl-N-((1-(2-phenoxyethyl)piperidin-4-yl)methyl)-1-(pyridin-2-yl)methanamine] | m100% |  |  |  |  |  |  |  |  |  | 
< 0.1 | < 100 | < 100 |  | < 100 |  | > 30000 | m1% |  | CC1(C(=O)NC(c2ccc(Cl)cc2)c2ccccn2)CCN(CCOc2ccccc2)CC1 (single isomer, unassigned) [Compound 144a, N-((4-chlorophenyl)(pyridin-2-yl)methyl)-4-methyl-1-(2-phenoxyethyl)piperidine-4-carboxamide] |  |  |  |  |  |  |  |  |  |  | 
> 30 | 10000 to 30000 |  |  | 1000 to 10000 | 311 (≈ 146 µg/mL) | 1000 to 10000 | 42% |  | O=C(NC(c1ccc(Cl)cc1)c1ccccn1)C1CCN(CCOc2ccc(F)cc2)CC1 (stereo not drawn) [Compound 5] | 90.5% |  |  |  | 0.195 | 0.021 | 0.142 | 91.2 | 95.2 | 71 | 84
> 30 | 100 to 1000 |  |  | 100 to 1000 | 0.7 (≈ 0.363 µg/mL) | 100 to 1000 | 44% |  | O=C(NC(c1ccc(Cl)cc1)c1ccccn1)C1CCN(CCOc2cccc(C(F)(F)F)c2)CC1 (stereo not drawn) [Compound 7, N-((4-chlorophenyl)(pyridin-2-yl)methyl)-1-(2-(3-(trifluoromethyl)phenoxy)ethyl) piperidine-4-carboxamide] | 100% |  |  |  |  | 0.004 |  | 91.5 | 93.5 | 87 | 76
> 30 | 100 to 1000 | 100 to 1000 |  | 100 to 1000 |  | 100 to 1000 | m22% |  | O=C(NC(c1ccc(Cl)cc1)c1ccc(F)cn1)C1CCN(CCOc2ccccc2F)CC1 (stereo not drawn) [Compound 92, N-((4-chlorophenyl)(5-fluoropyridin-2-yl)methyl)-1-(2-(2-fluorophenoxy)ethyl)piperidine-4-carboxamide] |  |  |  |  |  |  |  |  |  |  | 
1 to 10 | 100 to 1000 | < 100 |  | 100 to 1000 |  | > 30000 | m18% |  | Clc1ccc(C(c2ccccn2)N2CCC3(CCN(CCOc4ccccc4)CC3)C2)cc1 (stereo not drawn) [Compound 105, 2-((4-chlorophenyl)(pyridin-2-yl)methyl)-8-(2-phenoxyethyl)-2,8-diazaspiro[4.5]decane] |  |  |  |  |  |  |  |  |  |  | 
> 30 | 100 to 1000 | 100 to 1000 |  | 100 to 1000 |  | 100 to 1000 | m12% |  | FC(F)(F)CN(CC1CCN(CCOc2ccccc2)CC1)C(c1ccc(Cl)cc1)c1ccccn1 (stereo not drawn) [Compound 125, N-((4-chlorophenyl)(pyridin-2-yl)methyl)-2,2,2-trifluoro-N-((1-(2-phenoxyethyl)piperidin-4-yl)methyl)ethanamine] |  |  |  |  |  |  |  |  |  |  | 

Structure (SMILES) | EC50 [1] [µM] | EC50 [2] [nM] | Ki [3] [nM] | IC50 [4, 18] [µM] | IC50 [5] [nM] | solubility [6] [µM] | IC50 [7] [nM] | Microsomal Stability: % remaining after 60 minutes [9] | IC50 [10, 18] [µM] | Plasma Stability: % remaining after 5 hours [8] | Plasma Protein Binding % bound [11] | IC50 [10] [µM] | IC50 [4] [µM] | fraction unbound [12] | fraction unbound [11] | fraction unbound [13] | Plasma Stability: % remaining after 5 hours [14] [%] | Plasma Stability: % remaining after 5 hours [15] [%] | Microsomal Stability: % remaining after 60 minutes [16] [%] | Microsomal Stability: % remaining after 60 minutes [17] [%]
O=C(NC(c1ccc2c(c1)OC(F)(F)O2)c1ccccn1)C1CCN(CCOc2ccccc2)CC1 (single isomer, unassigned) [Compound 119b] | 0.1 to 1 | < 100 |  |  |  |  |  | m51% |  | m100% | m97.4% | 1 to 10 | > 30 |  |  |  |  |  |  | 
O=C(NC(c1ccc(Cl)cc1)c1ccccn1)C1CCN(CCOc2ccccc2F)CC1 (stereo not drawn) [Compound 3] | > 30 | < 100 |  |  | 100 to 1000 | 43 (≈ 20.1 µg/mL) | > 30000 | 22% |  | 100% |  |  |  | 0.246 | 0.015 | 0.315 | 92 | 86 | 64 | 44
O=C(NC(c1ccc(Cl)cc1)c1ccccn1)C1CCN(CCOc2ccccc2C(F)(F)F)CC1 (stereo not drawn) [Compound 6] | > 30 | > 30000 | 100 to 1000 |  | < 100 | 0.7 (≈ 0.363 µg/mL) | < 100 | 22% |  | 98.8% |  |  |  | 0.007 | 0.008 |  | 99 | 69.3 | 52 | 32
O=C(NC(c1ccc(Cl)cc1)c1ccccn1)C1CCN(CCOc2cc(F)ccc2F)CC1 (stereo not drawn) [Compound 14] | > 30 | < 100 |  |  | 100 to 1000 | 36.1 (≈ 17.5 µg/mL) | > 30000 | 11% |  | 100% |  |  |  | 0.009 | 0.015 | 0.006 | 96.7 | 78.2 | 49 | 44
O=C(NC(c1ccc2c(c1)OCO2)c1ccccn1)C1CCN(CCOc2ccccc2F)CC1 (stereo not drawn) [Compound 95, N-(benzo[d][1,3]dioxol-5-yl(pyridin-2-yl)methyl)-1-(2-(2-fluorophenoxy)ethyl) piperidine-4-carboxamide] | > 30 | 100 to 1000 | 100 to 1000 |  | 100 to 1000 |  | 100 to 1000 | m33% |  |  |  |  |  |  |  |  |  |  |  | 
